The record followed here is publication PMC10376064, “ABC Transporter C1 Prevents Dimethyl Fumarate from Targeting Alzheimer’s Disease” (Biology, 2023).

Molecules are shown by their SMILES.

The target of the assay is T1, ABCC1 (Homo sapiens, UniProt P33527).
T1 construct: membrane preparation of ABCC1-expressing H69AR cells
The assay is described as follows: vanadate-sensitive ATPase stimulation in H69AR membranes; daunorubicin and rhodamine […] transport inhibition in H69AR cells. Type of assay: cell-based.

T1 sequence (P33527 whole entry): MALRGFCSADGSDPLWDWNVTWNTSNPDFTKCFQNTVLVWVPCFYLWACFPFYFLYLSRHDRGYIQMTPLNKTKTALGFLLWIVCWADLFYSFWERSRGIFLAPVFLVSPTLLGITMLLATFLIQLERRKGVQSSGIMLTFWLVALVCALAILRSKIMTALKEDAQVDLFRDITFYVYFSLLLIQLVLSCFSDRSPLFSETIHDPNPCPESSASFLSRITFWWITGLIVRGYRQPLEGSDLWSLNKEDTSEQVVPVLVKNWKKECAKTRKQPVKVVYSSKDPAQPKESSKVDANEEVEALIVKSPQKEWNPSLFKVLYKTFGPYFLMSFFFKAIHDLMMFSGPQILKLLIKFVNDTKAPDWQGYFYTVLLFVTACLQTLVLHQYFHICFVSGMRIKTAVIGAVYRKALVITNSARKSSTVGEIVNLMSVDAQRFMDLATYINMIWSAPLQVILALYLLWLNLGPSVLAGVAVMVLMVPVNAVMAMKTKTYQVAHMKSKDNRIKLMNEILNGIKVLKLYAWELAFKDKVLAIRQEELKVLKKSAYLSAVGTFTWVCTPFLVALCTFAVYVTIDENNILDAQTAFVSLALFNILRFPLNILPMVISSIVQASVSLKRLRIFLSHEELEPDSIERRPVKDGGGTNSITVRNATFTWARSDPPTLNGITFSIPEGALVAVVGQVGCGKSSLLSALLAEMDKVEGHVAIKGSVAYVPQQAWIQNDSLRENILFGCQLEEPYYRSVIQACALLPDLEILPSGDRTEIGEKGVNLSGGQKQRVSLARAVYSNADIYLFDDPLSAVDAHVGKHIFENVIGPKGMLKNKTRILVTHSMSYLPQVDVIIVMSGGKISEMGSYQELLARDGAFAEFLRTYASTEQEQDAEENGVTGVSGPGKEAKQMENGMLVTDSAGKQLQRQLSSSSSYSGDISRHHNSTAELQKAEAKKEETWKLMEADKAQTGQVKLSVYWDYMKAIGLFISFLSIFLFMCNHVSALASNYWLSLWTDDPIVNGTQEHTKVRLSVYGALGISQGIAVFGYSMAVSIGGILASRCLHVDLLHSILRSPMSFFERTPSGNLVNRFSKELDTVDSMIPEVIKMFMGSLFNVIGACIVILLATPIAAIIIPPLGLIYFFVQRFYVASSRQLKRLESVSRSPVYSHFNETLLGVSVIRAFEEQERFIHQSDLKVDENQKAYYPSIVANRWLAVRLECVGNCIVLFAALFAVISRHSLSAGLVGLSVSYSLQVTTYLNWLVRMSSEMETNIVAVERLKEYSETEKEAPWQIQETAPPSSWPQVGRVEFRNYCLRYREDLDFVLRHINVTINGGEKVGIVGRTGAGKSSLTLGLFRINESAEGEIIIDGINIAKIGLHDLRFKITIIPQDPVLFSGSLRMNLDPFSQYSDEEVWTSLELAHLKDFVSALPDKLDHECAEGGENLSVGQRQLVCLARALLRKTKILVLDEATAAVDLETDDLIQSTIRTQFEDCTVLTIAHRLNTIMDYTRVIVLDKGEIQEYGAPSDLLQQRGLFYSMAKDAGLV

For the compound `COC(=O)CC(SC[C@H](NC(=O)CC[C@H](N)C(=O)O)C(=O)NCC(=O)O)C(=O)OC` (stereo partly shown) [compound 9, DMS-SG], the “vanadate-sensitive ATPase stimulation in H69AR membranes; daunorubicin and rhoda” value was ~ 200 µM.
